According to patent US11655239B2 (SHANGHAI INSTITUTE OF MATERIAL MEDICA, CHINESE ACADEMY OF …, priority 2019, dated 2023):

Experiments:
ERK1/2, Akt and p38 = assay: Phosphorylation level of downstream mediators of TGF-β (Western Blot); assay type: cell-based, human; conditions: MRC-5, TGF-β1 treatment
Protocol: (§1) 1) Preparation of cell protein samples: the cell culture liquid was discarded, wash was performed once with PBS, and samples were collected by adding 1×SDS-Loading. after the samples were collected, they were placed in a metal bath at 100° C., and the samples were boiled for 10 minutes, and then the samples were stored at 4° C. for waiting for subsequent test.
2) Gel preparation and sample loading: according to the molecular weight of the detected protein, different concentrations of separation gel were selected. after filling the 1× electrophoresis buffer, an equal volume of protein sample 4 μl and protein marker were added on the far left to right in sequence. […]
(§2) 8) Secondary antibodies: the film with the primary antibodies was rewarmed and incubated for about half an hour, and then the primary antibodies were recovered and the film was washed quickly with TBST solution 3 times, 10 minutes each time. […] The dilution ratio of the secondary antibody dedicated for DDR2 was 1:5000; The dilution ratio for the rest of the secondary antibodies were 1:8000, ready for use. […]
In addition, the phosphorylation level of the main downstream mediators of TGF-β was analyzed by Western Blot. […]

[1] = test system: mouse model of BLM-induced lung injury; assay: mRNA levels of inflammatory cytokines in lung tissue (qRT-PCR); assay type: in vivo; conditions: mice, 30, 60, 90 mg/kg
Protocol: The experiment used qRT-PCR technology to determine the mRNA levels of pro-inflammatory cytokines in lung tissue. Real-time quantitative PCR was used to detect the mRNA levels of TNF-α, IL-6, IL-1β, TGF-β and others.
About 30 mg of cryopreserved lung tissue was weighed and homogenized and lysed by adding 200 μL of Trizol (Takara, 9109 #). The fluid after the lysis in the well was collected by the RNA sterilization-grade pipette tip and transferred to the corresponding sterile EP tube. […] of chloroform was added, shaken vigorously for 30 sec, and centrifuged for 15 minutes in a centrifuge at 4° C. at 12000 rpm. The upper aqueous layer was transferred to a new EP tube, an equal volume of isopropanol was used to precipitate the RNA in the aqueous phase, and the tube was allowed to stand at −20° C. for more than 1 hr. And then the tube was centrifuged for 15 min at 4° C. at 12000 rpm, and the supernatant was discarded. 75% ethanol was added to wash the RNA pellet, and then the tube was centrifuged for 15 min at 4° C. at 12000 rpm, and the supernatant was discarded. The tube was placed at room temperature for 10-20 min to dry the RNA pellet. 25-200 μL of RNase-free water was added for dissolution and stored at −80° C.
PrimeScript™ RT Master Mix (Takara, RR036A) was selected for mRNA reverse transcription. Please refer to the instructions for the system. […]

MRC-5 induced by TGF-β1 = assay: Activation of MRC-5 induced by TGF-β1; assay type: cell-based, human; conditions: levels of Fibronectin, α-SMA, Collagen1-α1
Protocol: as §1
2) Gel preparation and sample loading: according to the molecular weight of the detected protein, different concentrations of separation gel were selected. after filling the 1× electrophoresis buffer, an equal volume of protein sample 4 μl and protein marker were added on the far left to right in sequence.
When the sample was in the concentrated gel, the voltage was set to 80 V; when the sample was electrophoresed to the separation gel, the voltage was increased to 120 V until the bromophenol blue was electrophoresed to reach the bottom of the gel, and the electrophoresis ended. […]
as §2

O=C(Nc1cccc(C(F)(F)F)c1)c1ccc(C2CC2)c(-c2ccc3nc(Nc4cnn(C5CC5)c4)ncc3c2)c1 [Compound S15, 4-cyclopropyl-3-(2-((1-cyclopropyl-1H-pyrazol-4-yl)amino)quinazolin-6-yl)-N-(3-(trifluoromethyl)phenyl)benzamide]
phosphorylation level of downstream ERK1/2, Akt and p38 (ERK1/2, Akt and p38): significantly inhibit the phosphorylation level of downstream ERK1/2, Akt and p38 | mRNA levels of pro-inflammatory cytokines TNF-α, IL-1β and IL-6 in lung tissue [1]: significantly reduce the levels of pro-inflammatory cytokines in a dose-dependent manner | activation of MRC-5 induced by TGF-β1 (MRC-5 induced by TGF-β1): inhibit the activation of MRC-5 induced by TGF-β1 in a dose-dependent manner
